From patent US8563261B2, “Method of diagnosing and treating interstitial cystitis” (The Trustees of the University of Pennsylvania, priority 2009, dated 2013)
Entries after “also recorded” stand apart in the source; their conditions may differ.

Experiments:
[1] = tested on: cultured urothelial cells; assay: Click-iT EdU assay of newly synthesized DNA; format: cell-based; details: ET-1 10 nM (25 ng/ml) vs control
From the text: Click-iT EdU assay (Invitrogen) was used to detect and quantify newly synthesized DNA. […] In Click-iT assay, EdU can be detected by green fluorescent dye and nuclei can be detected by blue fluorescent dye. Using fluorescent microplate reader (Synergy2, BioTek) both green and blue fluorescent signal were detected and quantified as shown in the bar graph of FIG. 3).

[2] = tested on: human primary urothelial cells; assay: growth of cultured human primary urothelial cells (proliferation assay); format: cell-based; details: 20 μM ET-1
From the text: Control cultures receive only the vehicle.

[3] = tested on: rabbit primary urothelial cells; details: ET-1 at 20 μM
Procedure: Briefly, explanted epithelial cells propagated from fresh biopsy specimens are grown in DMEM-F12 with 10% heat-inactivated fetal bovine serum, 1% antibiotic/antimycotic, 1% L-glutamine, 1.0 unit/ml insulin (all from Sigma), and 5 μg/ml human epidermal growth factor at 37° C. in a humidified atmosphere of 5% CO2 and 95% air. […] Cell proliferation is assessed also by ^3H-thymidine incorporation and by cell counting using a haemocytometer. ET-1 samples are diluted at varying concentrations in serum-free MEM (containing only glutamine and antibiotics) and applied to cells. Control cultures receive only the vehicle. Cells are fed with serum-free medium for the proliferation assay.
Cultures are exposed to 1 μCi per well ^3H-thymidine (1 Ci=37 GiBg) for 4 hrs and trypsinized, sedimented by brief centrifugation (3,000 rpm for 10 min) and the cell pellets are washed with a buffer containing cold thymidine and the radioactivity determined using a scintillation counter. The ^3H-thymidine incorporation is expressed as a mean decrease in cpm of >2 SD from the mean of control cells for each plate. […] After developing the autoradiographs in D-19 (15° C.) and fixation, culture plates are stained with H &E. Cultures are examined under a light microscope and the number of cells showing silver grains in the nuclei from 10 selected fields on the culture plate are counted. […]

SMILES: CC[C@H](C)[C@H](NC(=O)[C@H](CC(=O)O)NC(=O)[C@H](CC(C)C)NC(=O)[C@H](Cc1c[nH]cn1)NC(=O)[C@@H]1CSSC[C@H](N)C(=O)N[C@@H](CO)C(=O)N[C@H]2CSSC[C@H](NC(=O)[C@H](CCC(=O)O)NC(=O)[C@H](CCCCN)NC(=O)[C@H](CC(=O)O)NC(=O)[C@H](CCSC)NC(=O)[C@H](CC(C)C)NC(=O)[C@H](CO)NC(=O)[C@H](CO)NC2=O)C(=O)N[C@@H](C(C)C)C(=O)N[C@@H](Cc2ccc(O)cc2)C(=O)N[C@@H](Cc2ccccc2)C(=O)N1)C(=O)N[C@H](C(=O)N[C@@H](Cc1c[nH]c2ccccc12)C(=O)O)[C@@H](C)CC [ET-1, Endothelin-1]
- EdU staining (newly synthesized DNA) in cultured urothelial cells [1]: significant decrease
- effect on cell growth of cultured human urothelial cells [2]: inhibited; also recorded: inhibition
- inhibition of growth of rabbit primary urothelial cells [3]: 30-40%
